Test results from article PMC6553477 (Journal of pharmaceutical sciences, 2018).
“And” between values parts separate entries of the source, which are not always exact repeats. Equal values may be shown once. Read-outs that look alike come from different tables or passages of the source. Marks after values point to notes of the source that are not given here.

Assays:
[1] = Drug association efficiency to DcNP by equilibrium dialysis; assay type: physicochemical; settings: ATV-RTV-TFV DcNP, DSPC-DSPE-mPEG2000 (9:1)
[2] = Mechanism-based pharmacokinetic; assay type: in vivo, Macaca nemestrina; settings: MBPK model
[3] = in vivo, sc; for time concentrations were sustained in plasma: macaque (Macaca nemestrina)
[4] = in vivo
HIV [5] = settings: read-out: in vivo EC50; nonhuman primates; cited from earlier work
[6] = cited from earlier work; for LNMC concentration 24 h / LNMC concentration 192 h: in vivo, sc
[7] = PBMC intracellular drug concentrations after single subcutaneous injection; settings: for fold higher AUCPBMC, DcNP versus free drug: ATV-RTV-TFV DcNP compared with free form; for fold higher AUCPBMC, DcNP versus free drug / AUC: macaques; for AUC: monkey, sc, AUCPBMC, ATV-RTV-TFV DcNP, single subcutaneous dose, geometric mean (95% CI)
[8] = for MBRT / CL/F: ATV-RTV-TFV DcNP; for MBRT / half-life: plasma; for half-life: monkey, in vivo
[9] = for concentration at 192 h: concentration in LNMCs at 192 h after injection
HIV [10] = settings: read-out: in vitro effective concentration that produces 90% of the maximal effect (EC90); reported in vitro; cited from earlier work
HIV-1 protease = settings: reported; cited from earlier work
in vivo = settings: Macaca nemestrina (macaque), sc, LNMC/plasma ratio 192 h
[11] = in vivo, sc, cited from earlier work
[12] = monkey, in vivo, sc; cited from earlier work
[13] = macaque (Macaca nemestrina), sc
[14] = TLC-ART 101, subcutaneous, macaques, 24 h
[15] = TLC-ART 101, subcutaneous, macaques, 192 h
[16] = ATV-RTV-TFV DcNP compared with free form, macaques
[17] = single subcutaneous dose, macaques, geometric mean (95% CI)
[18] = sc, Terminal t1/2, ATV-RTV-TFV DcNP, single subcutaneous dose, macaques, geometric mean (95% CI)
[19] = ATV-RTV-TFV DcNP versus TLC-ART 101
[20] = ATV-RTV-TFV DcNP compared with free form, macaques, 24 h
[21] = ATV-RTV-TFV DcNP, subcutaneous, macaques, 24 h

Row | Structure (SMILES) | % Association to DcNP [1] | K07, rate of elimination ([2]; Atazanavir-DcNP) | V5_DcNP, central compartmental apparent volume for DcNP ([2]; Atazanavir-DcNP) | V7_Free, central compartmental apparent volume for free drug ([2]; Atazanavir-DcNP) | k21, rate of DcNP absorption into the first delayed compartment ([2]; Atazanavir-DcNP) | k31, rate of DcNP absorption into the second delayed compartment ([2]; Atazanavir-DcNP) | k41, rate of DcNP absorption into the third delayed compartment ([2]; Atazanavir-DcNP) | k75, rate of degradation of DcNP into free drug between central compartments ([2]; Atazanavir-DcNP) | tlag1, delayed constant of delayed compartment 1 ([2]; Atazanavir-DcNP) | tlag2, delayed constant of delayed compartment 2 ([2]; Atazanavir-DcNP) | tlag3, delayed constant of delayed compartment 3 ([2]; Atazanavir-DcNP) | time concentrations were sustained in plasma [3] | time drug concentration in PBMCs was sustained [4, 13] | LNMC concentration 24 h [6] | LNMC concentration 192 h [6] | fold higher AUCPBMC, DcNP versus free drug [7] [fold] | fold higher plasma AUC, DcNP versus free drug [8, 16] [fold] | MBRT [8, 17] | CL/F [8, 17] | half-life [8, 18] [days] | also measured
1 | C[C@H](Cn1cnc2c(N)ncnc21)OCP(=O)(O)O [TFV, 9-(2-Phosphonyl-methoxypropyly)adenine] | 10 ± 0.8% and 10 ± 1% | 0.4 (0.08-2) 1/h | 0.7 (0.5-0.9) L/kg | 1.1 (0.8-1.3) L/kg | 0.05 (-) 1/h | 0.1 (-) 1/h | 0.15 (-) 1/h | 0.026 (0.009-0.03) 1/h | 1 h | 23 (-) h | 106 (76-132) h | up to 14 days | up to 192 h | 25 (14-47) μM | 19 (3.6-280) μM | 5 | 35 | 128 (65-254) h | 0.004 (0.002-0.015) L/[h·kg] | 2.75 | k76, rate of absorption of free drug ([2]; Atazanavir-DcNP): 1.7 (0.6-2.5) 1/h; k78, rate from periphery to central free compartment ([2]; Atazanavir-DcNP): 0.06 (-) 1/h; k87, rate from central free compartment to periphery ([2]; Atazanavir-DcNP): 0.02 (-) 1/h; AUC (plasma, extrapolated to infinity) ([3]; monkey): 3057 (1029-9078) h·μM; AUCPBMC ([4]; monkey, sc): 1134 (588-1554) h·μM; EC50 (HIV [5]): 0.049 µM; LNMC/PBMC ratio 24 h [6, 14]: 0.93 (0.39-2.3); LNMC/plasma ratio 24 h [6, 14]: 3 (1.5-5.3); LNMC/PBMC ratio 192 h [6, 15]: 4.4 (0.45-340.0); LNMC/plasma ratio 192 h [6, 15]: 6.8 (1.4-75); fold longer MBRT, DcNP versus free drug [8, 16]: 41 fold; fold longer apparent t1/2, DcNP versus free drug [8, 16]: 7 fold; fold lower CL/F, DcNP versus free drug [8, 16]: 23 fold; LNMC/PBMC ratio 24 h ([9]; free drug combination, subcutaneous, macaques, 24 h): 1.8^d; concentration at 192 h ([9]; macaque (Macaca nemestrina), in vivo, sc, ATV-RTV-TFV DcNP, subcutaneous, primates, 192 h): 0.13 µM
2 | COC(=O)N[C@H](C(=O)N[C@@H](Cc1ccccc1)[C@@H](O)CN(Cc1ccc(-c2ccccn2)cc1)NC(=O)[C@@H](NC(=O)OC)C(C)(C)C)C(C)(C)C [ATV, atazanavir] | 99 ± 8.2% and 99 ± 8% | 0.29 (-) 1/h | 1259^a (569-1680) L/kg | 113 (97-133) L/kg | 0.15 (0.1-0.3) 1/h | 0.05 (-) 1/h | 0.7 (-) 1/h | 0.04^a (0.01-0.06) 1/h | 0.25 (-) h | 16 (9-25) h | 440 (336-520) h | up to 14 days | up to 336 h | – | – | 33 | 5 | 650 (370-1230) h | 11^a (8-13) L/[h·kg] | 19.5 | fold higher V5_DcNP for ATV than LPV [2, 19]: 180 fold; fold lower k75 for ATV than LPV [2, 19]: 18 fold; EC90 (HIV [10]): 0.013 µM; fold higher antiretroviral activity compared with several other commercialized protease inhibitors (HIV-1 protease): 2- to 20 fold; fold higher PBMC exposure (AUCPBMC) of ATV than LPV ([7]; ATV-RTV-TFV DcNP versus TLC-ART 101, macaques): 5.5 fold; AUC ([7]; PBMC (intracellular)): 435 µM·h; fold longer MBRT, DcNP versus free drug [8, 16]: 116 fold; fold lower CL/F, DcNP versus free drug [8, 16]: 4 fold; fold higher CL/F, free ATV compared with free LPV ([8]; free drugs, macaques): 9 fold; fold lower AUC, free ATV compared with free LPV ([8]; free drugs, macaques): 8 fold; half-life ([8]; terminal half-life, DcNP ATV, macaques (Table 2)): ~20 days; fold higher intracellular LNMC concentration at 24 h, DcNP versus free drug [9, 20]: 3 fold; fold lower LNMC-to-plasma ratio at 24 h, DcNP versus free drug [9, 20]: 4 fold; fold higher intracellular LNMC concentration at 192 h, DcNP versus free drug ([9]; ATV-RTV-TFV DcNP compared with free form, macaques, 192 h): 3 fold; intracellular LNMC concentration at 192 h ([9]; ATV-RTV-TFV DcNP, macaques, 192 h): 0.09 mμM; LNMC concentration 24 h [9, 21]: 0.10 (0.04-0.24) μM; LNMC/PBMC ratio 192 h ([9]; ATV-RTV-TFV DcNP, subcutaneous, macaques, 192 h, n=2): 2.4^b; intracellular LNMC concentration at 192 h ([9]; free drug, macaques, 192 h): 0.03 mμM; concentration at 24 h ([9]; macaque (Macaca nemestrina), lymph node mononuclear cells (LNMC), sc, concentration in LNMCs at 24 h after injection, ATV-RTV-TFV DcNP, subcutaneous, primates, 24 h): 0.1 µM; concentration at 192 h ([9]; macaque (Macaca nemestrina), lymph node mononuclear cells (LNMC), sc, ATV-RTV-TFV DcNP, subcutaneous, primates, 192 h): 0.09 µM
3 | CC(C)c1nc(CN(C)C(=O)N[C@H](C(=O)N[C@@H](Cc2ccccc2)C[C@H](O)[C@H](Cc2ccccc2)NC(=O)OCc2cncs2)C(C)C)cs1 [RTV, ritonavir] | 92 ± 7.1% and 92 ± 7% | 0.08 (0.03-0.12) 1/h | 67 (22-94) L/kg | 79 (56-122) L/kg | 0.40 (0.35-0.46) 1/h | 0.05 (-) 1/h | 0.5 (-) 1/h | 0.19 (0.06-0.26) 1/h | 0.3 (-) h | 41 (35-46) h | 186 (169-199) h | up to 14 days | up to 336 h | 6.3^a (4.4-8.5) μM | 1.00 (0.06-2.00) μM | – | – | 110 (46-266) h | 4 L/[h·kg] | 3.04 | last PBMC concentration timepoint detected ([4]; macaque (Macaca nemestrina)): 48 h; Kp at 192 h (in vivo): 23; AUC ([7]; PBMC (intracellular)): 85 µM·h; AUC ([7]; PBMC, PBMC intracellular): 79 µM·h; LNMC concentration 24 h [9, 21]: 0.40^a (0.06-3.00) μM; LNMC concentration ([9]; RTV in ATV-RTV-TFV DcNP, macaques, unit as printed in text (Table 4: 24 h)): 0.4 mM
4 | Cc1cccc(C)c1OCC(=O)N[C@@H](Cc1ccccc1)[C@@H](O)C[C@H](Cc1ccccc1)NC(=O)[C@H](C(C)C)N1CCCNC1=O [LPV, lopinavir] | – | – | – | – | – | – | – | – | – | – | – | – | – | – | – | – | – | – | – | – | AUC (plasma, extrapolated to infinity) [11]: 4.8 (4.2-4.6)^c h·μM; CL/F ([11]; monkey): 5 L/[h·kg]; Terminal t1/2 ([11]; monkey): 8.7 (5.3-10.4)^c h; AUCPBMC [12]: 22 (10-33)^c h·μM
